From publication PMC11397358, “Cytotoxic Activity of Novel GnRH Analogs Conjugated with Mitoxantrone in Ovarian Cancer Cells” (Molecules, 2024)

System: SKOV-3 cells
Assay: Annexin V / propidium iodide apoptosis assay by flow cytometry
Assay type: cell-based, human
Conditions: for Apoptotic Cells (%) Mean, Day2 / Apoptotic Cells (%) Mean, Day3 / Apoptotic Cells (%) Mean, Day4: 1 μM, Q1 and Q2, mean of three experiments, * p < 0.01 vs untreated; for Apoptotic Cells (%) Mean, Day2 / percentage of apoptotic cells (Q1, Q2 quadrants), day 2: 2 days; for Apoptotic Cells (%) Mean, Day3 / percentage of apoptotic cells (Q1, Q2 quadrants), day 3: 3 days; for Apoptotic Cells (%) Mean, Day4 / percentage of apoptotic cells (Q1, Q2 quadrants), day 4: 4 days; for percentage of apoptotic cells (Q1, Q2 quadrants), day 2 / percentage of apoptotic cells (Q1, Q2 quadrants), day 3 / percentage of apoptotic cells (Q1, Q2 quadrants), day 4: 1 μΜ, 37 °C, representative experiment (Figure 5)
From the text: We next evaluate the abilities of Con-3 and Con-7 at concentrations of 1 μΜ to induce cell death by determining the percentages of live, apoptotic and necrotic cells after treatment of SKOV-3 cells with the GnRH conjugates. As shown in Figure 5 and Figures S1–S3 on day 2, the majority of SKOV-3 cells were viable (Q4 quadrant), treated either with Con-3, Con-7 or mitoxantrone, whereas the percentage of apoptotic cells (late or early apoptotic) (Q1, Q2 quadrants) was only 10.1%, 10.87% and 13.1% after treatment with Con-3, Con-7 or mitoxantrone, respectively. […] Cell viability further decreased on day 4 with a concomitant increase in apoptosis. Specifically, the percentage of apoptotic cells was 53.5%, 59.6% and 54.3% after treatment with Con-3, Con-7 or mitoxantrone (Figure 5 and Figures S7–S9). In all phases, the percentage of the necrotic and late apoptotic cells (Q3 quadrant) was very small.
Figure 5 Determination of viability, apoptosis, or necrosis of SKOV-3 cells after their treatment with 1 μM Con-3, Con-7, or mitoxantrone for 2, 3, and 4 days at 37 °C. At the end of the incubation the cells were further incubated in binding buffer supplied by Biotium, (CF488A Apoptosis Detection kit) and analyzed on a flow cytometer (excitation 488 nm), in the FITC channel (filter 530 nm) for detection of the Annexin V-positive cellsand in the propidium iodide, or PI, channel (filter 616 nm) for detection of the PI-positive cells. The figures are from a representative experiment performed three times with similar results. A higher resolution of the images in Figure 5 is provided in the Supplementary Material (Figures S1–S9). TEXT PRINTED IN THE PICTURE: Con-3: Q3: 4,19 (Day 2); Q2: 7,12 (Day 2); Q4: 85,7 (Day 2); Q1: 2,98 (Day 2); Q3: 5,31 (Day3); Q2: 19,5 (Day3); Q4: 58,0 (Day3); Q1: 17,1 (Day3); Q3: 3,54 (Day4); Q2: 17,1 (Day4); Q4: 43,0 (Day4); Q1: 36,4 (Day4) | Con-7: Q3: 6,31 (Day 2); Q2: 7,74 (Day 2); Q4: 82,8 (Day 2); Q1: 3,13 (Day 2); Q3: 8,11 (Day3); Q2: 19,8 (Day3); Q4: 56,8 (Day3); Q1: 15,3 (Day3); Q3: 3,48 (Day4); Q2: 19,7 (Day4); Q4: 36,9 (Day4); Q1: 39,9 (Day4) | Mitoxantrone: Q3: 6,49 (Day 2); Q2: 9,40 (Day 2); Q4: 80,4 (Day 2); Q1: 3,67 (Day 2); Q3: 7,13 (Day3); Q2: 18,9 (Day3); Q4: 61,0 (Day3); Q1: 13,1 (Day3); Q3: 2,72 (Day4); Q2: 17,3 (Day4); Q4: 43,0 (Decimal sign as read) (Day4); Q1: 37,0 (Day4) DOUBTS OF THE COPYIST ABOUT THIS PICTURE: All quadrant values: the print is very small, and the decimal sign may be a comma or a point in every value / Con-3, Day 2, Q4: 85,7 or 86,7 / Con-3, Day 2, Q1: 2,98 or 2,96 / Con-3, Day3, Q3: 5,31 or 6,31 / Con-3, Day3, Q2: 19,5 or 19,6 / Con-3, Day3, Q4: 58,0 or 56,0 / Con-3, Day4, Q3: 3,54 or 3,64 / Con-3, Day4, Q1: 36,4 or 38,4 / Con-7, Day 2, Q3: 6,31 or 8,31 / Con-7, Day 2, Q4: 82,8 or 82,6 / Con-7, Day 2, Q1: 3,13 or 3,15 / Con-7, Day3, Q3: 8,11 or 6,11 / Con-7, Day3, Q2: 19,8 or 19,6 / Con-7, Day3, Q4: 56,8 or 58,8 / Con-7, Day3, Q1: 15,3 or 15,8 / Con-7, Day4, Q3: 3,48 or 3,46 / Con-7, Day4, Q4: 36,9 or 38,9 / Con-7, Day4, Q1: 39,9 or 38,9 / Mitoxantrone, Day 2, Q3: 6,49 or 8,49 / Mitoxantrone, Day 2, Q2: 9,40 or 8,40 / Mitoxantrone, Day 2, Q4: 80,4 or 60,4 / Mitoxantrone, Day 2, Q1: 3,67 or 3,87 / Mitoxantrone, Day3, Q2: 18,9 or 16,9 / Mitoxantrone, Day3, Q4: 61,0 or 81,0 / Mitoxantrone, Day3, Q1: 13,1 or 15,1 […]
SKOV-3 cells were seeded into 12-well plates at a density of 50,000 cells/well and incubated overnight in DMEM/F12 (1:1) containing 3.15 g/L glucose and 10% BCS, at 37 °C and 5% CO2. At the end of the incubation, the culture medium was replaced with a fresh one containing 3.15 g/L glucose and 2% BCS, with or without GnRH analogs or mitoxantrone at a concentration of 1 μΜ, and the cells were further incubated at 37 °C and 5% CO2 for 2, 3 and 4 days. […]

Question: For `O=C1c2c(O)ccc(O)c2C(=O)c2c(NCCNCCO)ccc(NCCNCCO)c21` [mitoxantrone], which “Apoptotic Cells (%) Mean, Day2” value is on record?
Answer: 14.26 * %

Question: And the “Apoptotic Cells (%) Mean, Day3” value?
Answer: 33.60 * %

Question: What about the “Apoptotic Cells (%) Mean, Day4” value of the same compound?
Answer: 50.10 * %

Question: And the “percentage of apoptotic cells (Q1, Q2 quadrants), day 2” value (“percentage of apoptotic cells … day 2” below)?
Answer: 13.1%

Question: What about the “percentage of apoptotic cells (Q1, Q2 quadrants), day 3” value (“percentage of apoptotic cells … day 3” for short) of the same compound?
Answer: 32%

Question: What about the “percentage of apoptotic cells (Q1, Q2 quadrants), day 4” value (from here on “percentage of apoptotic cells … day 4”) of the same compound?
Answer: 54.3%

Question: How did the “Apoptotic Cells (%) Mean, Day2” value turn out when `CCNC(=O)[C@@H]1CCCN1C(=O)[C@H](CCCNC(=N)N)NC(=O)[C@H](CC(C)C)NC(=O)[C@@H](CCCCNC(=O)CCCCCNC(=O)CCSSCC(=O)OCCNCCNc1ccc(NCCNCCO)c2c1C(=O)c1c(O)ccc(O)c1C2=O)NC(=O)[C@H](Cc1ccc(O)cc1)NC(=O)[C@H](CO)NC(=O)[C@H](Cc1c[nH]c2ccccc12)NC(=O)[C@H](Cc1c[nH]cn1)NC(=O)[C@@H]1CCC(=O)N1` [Con-7] was run?
Answer: 13.81 * %

Question: What about the “Apoptotic Cells (%) Mean, Day3” value of the same compound?
Answer: 33.53 * %

Question: And the “Apoptotic Cells (%) Mean, Day4” value?
Answer: 51.17 * %

Question: What about the “percentage of apoptotic cells … day 2” value of the same compound?
Answer: 10.87%

Question: What about the “percentage of apoptotic cells … day 3” value of the same compound?
Answer: 35.1%

Question: What about the “percentage of apoptotic cells … day 4” value of the same compound?
Answer: 59.6%

Question: With `CCNC(=O)[C@@H]1CCCN1C(=O)[C@H](CCCNC(=N)N)NC(=O)[C@H](CC(C)C)NC(=O)[C@@H](CSSCCC(=O)OCCNCCNc1ccc(NCCNCCO)c2c1C(=O)c1c(O)ccc(O)c1C2=O)NC(=O)[C@H](Cc1ccc(O)cc1)NC(=O)[C@H](CO)NC(=O)[C@H](Cc1c[nH]c2ccccc12)NC(=O)[C@H](Cc1c[nH]cn1)NC(=O)[C@@H]1CCC(=O)N1` [Con-3] as the compound, how does the “Apoptotic Cells (%) Mean, Day2” value read?
Answer: 13.68 * %

Question: And the “Apoptotic Cells (%) Mean, Day3” value?
Answer: 35.00 * %

Question: What about the “Apoptotic Cells (%) Mean, Day4” value of the same compound?
Answer: 49.50 * %

Question: And the “percentage of apoptotic cells … day 2” value?
Answer: 10.1%

Question: And the “percentage of apoptotic cells … day 3” value?
Answer: 36.6%

Question: And the “percentage of apoptotic cells … day 4” value?
Answer: 53.5%
